Consider two molecules from patent US12351656B2, “Functionalized and crosslinked polymers” (PMIDG, LLC, priority 2017, dated 2025).

Series [1] can be described thus: Bupivacaine release from FeCl3-crosslinked gels (HPLC). Format: physicochemical. The following applies: FeCl3-crosslinked 4% (w/v) gel with bupivacaine hydrochloride monohydrate, 2% SDS in PBS pH 7.4, 37° C. How it is done:
Sodium hyaluronate (1.4 m3/kg, approx. 800 kDa) and HA derivatives comprising mercaptosuccinic acid and thiophenol, as described in Example 60 and 61, were diluted to 4% (w/v) concentrations in deionized water and mixed with bupivacaine hydrochloride monohydrate (Sigma Aldrich B5274). The polymers were crosslinked using the addition of 2% FeCl3 solution in deionized water for 1:1 linking of carboxyl groups of sodium hyaluronate and chloride of FeCl3 and pH of the gels was adjusted to 6.5-7.5 using 0.25M NaOH solution. The release study buffer applied to each sample consisted of 2% (w/v) sodium dodecyl sulfate (SDS) dissolved in Phosphate buffered saline (pH 7.4, Sigma P3813). All samples were incubated at 37° C. and sampled for testing over 96 hours. For each timepoint, 0.25 ml of the sample was combined with 5 ml MeOH and then filtered through a 0.45 μm filter prior to analyzing using HPLC with a C18 column and 30:70 phosphate buffer (pH 5.0):methanol as mobile phase at 0.6 ml/min flow rate. The chromatogram was collected using a photodiode array detector at 205 nm and the amount of bupivacaine released was calculated from integral value of peak at the retention time of 7.1 minutes based on calibration performed previously.

Series [2] is described as follows: Vancomycin hydrochloride release from FeCl3-crosslinked gels (HPLC). Format: physicochemical. The following applies: FeCl3-crosslinked 4% (w/v) gel, vancomycin hydrochloride 10% (w/w), PBS pH 7.4, 37° C. The protocol:
Sodium hyaluronate (1.4 m3/kg, approx. 800 kDa) and HA derivatives comprising mercaptosuccinic acid and thiophenol, as described in Example 59 and 60 were diluted to 4% (w/v) concentrations in deionized water and mixed with vancomycin hydrochloride (Sigma Aldrich PHR1732) at 10% (w/w) loading. The polymers were crosslinked using the addition of 2% FeCl3 solution (crosslinking agent) in deionized water for 1:1 linking of carboxyl groups of sodium hyaluronate and chloride of FeCl3 and pH of the gels was adjusted to 6.5-7.5 using 0.25M NaOH solution. The release study buffer applied to each sample consisted of phosphate buffered saline (pH 7.4, Sigma P3813). […] For each timepoint, 0.25 ml of the sample was combined with 5 ml H2O and then filtered through a 0.45 μm filter prior to analyzing using HPLC with a C18 column and 85:15 phosphate buffer (pH 3.0):methanol as mobile phase at 0.8 ml/min flow rate. The chromatogram was collected using a photodiode array detector at 205 nm and the amount of vancomycin hydrochloride released was calculated from integral value of peak at the retention time of 11.3 minutes based on calibration performed previously.

Counter-ions that a name gives are not always drawn.

In the case of `CCCCN1CCCCC1C(=O)Nc1c(C)cccc1C` (centres unmarked) [Bupivacaine, bupivacaine hydrochloride monohydrate], the “% Bupivacaine Released” value was 0.00% in series [1] (0 hours); 72.54% in series [1] (1 hour); 70.10% in series [1] (3 hours); 71.43% in series [1] (6 hours); 83.46% in series [1] (24 hours).
With `CN[C@H](CC(C)C)C(=O)N[C@H]1C(=O)N[C@@H](CC(N)=O)C(=O)N[C@H]2C(=O)N[C@H]3C(=O)N[C@H](C(=O)N[C@H](C(=O)O)c4cc(O)cc(O)c4-c4cc3ccc4O)[C@H](O)c3ccc(c(Cl)c3)Oc3cc2cc(c3O[C@@H]2O[C@H](CO)[C@@H](O)[C@H](O)[C@H]2O[C@H]2C[C@](C)(N)[C@H](O)[C@H](C)O2)Oc2ccc(cc2Cl)[C@H]1O` [Vancomycin, vancomycin hydrochloride], the “% Vancomycin Hydrochloride Release” value was found to be 0.00% in series [2] (0 hours); 98.03% in series [2] (1 hour); 95.40% in series [2] (3 hours); 92.08% in series [2] (6 hours); 90.70% in series [2] (24 hours); 72.11% in series [2] (96 hours).
